Legend:
[1] = Liver microsome metabolism, mouse; format: in vitro ADME
[2] = Liver microsome metabolism, human; format: in vitro ADME
[3] = tested on: human liver cancer MHCC97H cell xenograft tumor; assay: In vivo efficacy, MHCC97H subcutaneous xenograft tumor model; set-up: species or system BALB/c nude mice; conditions: for tumor volume (24th day): 24th day after administration, average value±SEM; for T/C / TGI: based on the tumor volume on the 24th day after administration
Protocol: MHCC97H cells were cultured in a single layer in-vitro. The culturing condition was RPMI1640 medium supplemented with 10% heat-inactivated fetal bovine serum, 1% penicillin-streptomycin double antibody under 37° C., 5% carbon dioxide. Digestion and passage treatment with trypsin-EDTA was done twice a week. When the cells were in the exponential growing phase, the cells were collected, counted and inoculated.
BALB/c nude mice, male. 6-8 weeks old, weighting 18-22 g.
0.2 mL of a cell suspension containing 5×10^6 MHCC97H was subcutaneously inoculated into the right back of each mouse. Drugs were administered by group after the average tumor volume reached approximately 172 mm^3.
Investigation of whether the tumor growth was inhibited, delayed or cured. The diameters of the tumor were measured twice a week using a vernier caliper. The formula for calculating the tumor volume is V=0.5a×b^2, and a and b represent the long and short diameters of the tumor respectively. The antitumor effect (TGI) of the compound was evaluated by T-C (days) and TIC (%).
Remark: a. average value±SEM; b. p value was calculated based on the tumor volume.

[4] = Liver microsome metabolism, rat; format: in vitro ADME
[5] = tested on: MHCC97-H cells; conditions: read-out: IC50 on MHCC97-H cells; background section; cited from earlier work
[6] = tested on: MHCC97-H cells
Protocol: The cell plates were incubated in a carbon dioxide incubator for 3 days.

[7] = liver microsomes, read-out: t1/2 by liver microsome metabolism

Row | SMILES | half-life [1, 7] [min] | half-life [2, 7] [min] | tumor volume (24th day) [3] [mm^3] | T/C [3] [%] | TGI [3] [%] | half-life [4, 7] [min] | IC50 [5] [nM] | Inhibitory activity on MHCC97H cell, in words [6] | t1/2 by liver microsome metabolism [1] [min] | t1/2 by liver microsome metabolism [2] [min] | Tumor inhibitory effect compared with tepotinib, in words ([3]; MHCC97H liver cancer cell subcutaneous xenograft tumor model) | t1/2 by liver microsome metabolism [4] [min]
1 | CN1CCC(COc2cnc(-c3cccc(Cn4nc(-c5cccc(C#N)c5)ccc4=O)c3)nc2)CC1 [Tepotinib, reference compound] | 12.4 | 48.3 | 255 ± 5 | 12.4 | 95.6 | 10.5 | 6.2 |  |  |  |  | 
2 | C[C@H](c1cccc(-c2ncc(OCC3CCN(C)CC3)cn2)c1)n1cc(-c2cc(C#N)ccn2)cc(F)c1=O [compound represented by formula (I)] |  |  | 153 ± 12 | 7.4 | 101.0 |  |  | good inhibitory activity | 49.1 | 62.1 | better tumor inhibitory effect than tepotinib | 36.5
